According to US6737076B2, “Hypoallergenic composition containing tolerogenic peptides” (Nestec S.A., priority 1999, dated 2004):

Columns and labels:
β-LG epitopes = test: ELISA inhibition, β-LG IgG binding capacity (residual β-LG epitopes, antigenicity)
Protocol: An ELISA inhibition was used to determine β-LG epitopes in β-LG hydrolysate and in β-LG fractions. β-lactoglobulin titers were calculated from a 5-fold dilution β-LG standard curve run on each plate.

GLM = test: Lymphocyte proliferation stimulation index (GLM) after oral peptide feeding; assay type: in vivo, mice; conditions: synthetic peptides, 20 mcg/g of body weight
Protocol: (§1) Spleen cell solutions were homogenized and purified. Cells were cocultured in the presence of β-LG or of phytohaemagglutinin A. (^3H)Tdr (Amersham, Zurich) was added in the final 6 hours of culture and the plates were harvested and analyzed by scintillation counting. Stimulation indices were calculated as the ratio of blank-subtracted test and control values expressed as the mean cpm (^3H)Tdr incorporation by triplicate cultures.
(§2) The tolerogenic peptides T6 and T17 contained in tolerogenic fraction F2 were synthetically prepared. T13 contained in a non tolerogenic fraction was also synthesized as a negative control. Oral tolerance induction of these peptides were tested in […] mice as described in example 1c) except that the dose is of 20 mcg/g of body weight.

anti-β-LG IgE = test: Seric anti-β-LG IgE by ELISA after oral tolerance induction and immunization; assay type: in vivo, mice; conditions: synthetic peptides, 20 mcg/g of body weight; control 3.39
Protocol: (§3) Female Balb/c mice were obtained from IFFA-Crédo (L'Abresle, France). They were all bred and raised on a milk free diet. The mice were 3 weeks old at the start of the experiments.
(§4) Gavages were orally administered to the mice at age 22 days, by gastric feeding of native β-LG (5 mg/g of body weight), various amounts of TTH β-LG, or various amounts of the different β-LG peptidic fractions. Control mice were fed saline water. 5 days later, all mice were immunized β-LG and OVA (Ovalbumin, grade V, Sigma), as a non-related antigen for testing the specificity of the immune response, 21 days after systemic challenge, a Delayed Type Hypersensitivity (DTH) evaluation was done by duplicate thickness measures of the left, rear footpad prior to, and following, immunization with β-LG.
(§5) 24 hours after DTH immunization, individual increases in foot pad thickness of those injected the day before were measured. […] Specific IgE against β-LG and against OVA were determined both in seric and intestinal samples.
Serum and intestinal fluid dilutions were assayed in duplicate for anti-β-LG and anti-OVA IgE antibodies by ELISA. […] Titers were determined by calculating the dilution of the sample that gave twice the absorbance of the negative control. Titers were expressed as the log10 of the reciprocal of the dilution. […]

Balb/c mice = test: Oral tolerance induction mouse model, overall tolerogenic properties; assay type: in vivo; conditions: oral administration of synthetic peptides, 20 mcg/g of body weight
Protocol: as §3, §4, §5
Qualitative responses of the tolerogenic properties generated from feeding the different fraction groups at two different concentrations (0.5 or 0.125 mg/g of body weight) were evaluated. Induction or absence of induction of tolerogenic responses to β-LG has been determined by the statistical significance of the immune response. […]

Spleen cell = test: Splenocyte specific proliferation assay with β-LG ((3H)Tdr incorporation) from fed mice; assay type: in vivo; conditions: 20 mcg/g of body weight; for cellular tolerance (specific inhibition of lymphocyte proliferation), in words: oral administration of synthetic peptides; for Stimulation index (rate): synthetic peptides
Excerpt: FIG. 1 represents specific oral tolerance induction in mice fed once with either TTH β-LG, F2 or F(7+9). A: Humoral (dark bars) and mucosal (gray bars) anti-β-LG IgE response. B: β-LG-specific DTH response (●) are individual foot pad increments and (−) are means from 10 mice per group. C and D: Specific (β-LG) and non specific (PHA) proliferative responses of splenic cells. Splenic lymphocytes from mice fed with either saline (♦), TTH β-LG (▪), F2 (▴), or F (7+9) (●) were isolated and subsequently stimulated with decreasing concentrations of antigens. ^3H thymidine incorporation was measured after 120 hours of culture. (^3H)Tdr incorporation results were expressed in cpm, as a mean of triplicate cultures, the blank-subtracted mean was then plotted respectively against β-LG or PHA concentration.
24 hours after DTH immunization, individual increases in foot pad thickness of those injected the day before were measured. Differences between these two measurements were expressed in <thickness (millimeters) and used in group comparisons. Then, from all mice, blood samples were obtained, spleens were taken and pooled according to group of treatment. Splenocyte specific proliferation assays were performed for each group. Intestinal contents were individually collected. Serum and intestinal samples were rapidly frozen at −80° C., until assays. Specific IgE against β-LG and against OVA were determined both in seric and intestinal samples.
as §1, §2

Row | Substance | antigenicity (in words) (β-LG epitopes) | Stimulation index (GLM) (GLM) | tolerized anti-LG IgE/ control (tolerized value) (anti-β-LG IgE) | tolerance induction / tolerogenic potential (in words) (Balb/c mice) | cellular tolerance (specific inhibition of lymphocyte proliferation), in words (Spleen cell) | Stimulation index (rate) (Spleen cell)
1 | H2N-I-D-A-L-N-E-N-K-COOH (H-IDALNENK-OH) [T6] | very low antigenicity | 0.285 | 3.24/3.39 | high tolerogenic potential | induces a cellular tolerance | 0.53
2 | H2N-V-L-V-L-D-T-D-Y-K,-K-COOH [T17] | very low antigenicity | 0.405 | 2.67/3.39 | high tolerogenic potential | induces a cellular tolerance | 0.305
